We go through ten compounds from patent publication US20250154198A1, “PEPTIDE INHIBITORS OF INTERLEUKIN-23 RECEPTOR” (Zealand Pharma A/S, priority 2021, published 2025).

SMILES strings stand for the structures. Read-outs that look alike come from different tables or passages of the source. *1 amine or outer side, *2 acyl side, *3 side chain or, on linkers, in order; H or OH if unused. Where a SMILES comes first, the peptide text is derived from it. Bridges are numbered along the chain shown (N, C = ends). [ ]: non-standard residue; d: D form. Ala(quinolin-3-yl) = N[C@@H](Cc1cnc2ccccc2c1)C(=O)O; Trp(7-Me) = Cc1cccc2c(C[C@H](N)C(=O)O)c[nH]c12; Phe(3,4-Me2) = Cc1ccc(C[C@H](N)C(=O)O)cc1C; 2Nal = N[C@@H](Cc1ccc2ccccc2c1)C(=O)O; AEF = NCCOc1ccc(C[C@H](N)C(=O)O)cc1; X1 = O=C(Cc1ccc(CN[*:1])cc1)[*:2]; 3Pal = N[C@@H](Cc1cccnc1)C(=O)O; d3Pal = N[C@H](Cc1cccnc1)C(=O)O; αMeL = CC(C)C[C@](C)(N)C(=O)O; CH2COCH2 = O=C(C[*:1])C[*:2]; αMeV = CC(C)[C@](C)(N)C(=O)O; 3Amb = NCc1cccc(C(=O)O)c1; Dab = NCC[C@H](N)C(=O)O

The test has as its target T1, human IL-23R (Homo sapiens, UniProt Q5VWK5).
T1 construct: UniProtKB—Q5VWK5, amino acids 22-629; secretion signal of the plasmid (Promega N1371); expressed in transfected cells
T1 sequence (Q5VWK5 22-629): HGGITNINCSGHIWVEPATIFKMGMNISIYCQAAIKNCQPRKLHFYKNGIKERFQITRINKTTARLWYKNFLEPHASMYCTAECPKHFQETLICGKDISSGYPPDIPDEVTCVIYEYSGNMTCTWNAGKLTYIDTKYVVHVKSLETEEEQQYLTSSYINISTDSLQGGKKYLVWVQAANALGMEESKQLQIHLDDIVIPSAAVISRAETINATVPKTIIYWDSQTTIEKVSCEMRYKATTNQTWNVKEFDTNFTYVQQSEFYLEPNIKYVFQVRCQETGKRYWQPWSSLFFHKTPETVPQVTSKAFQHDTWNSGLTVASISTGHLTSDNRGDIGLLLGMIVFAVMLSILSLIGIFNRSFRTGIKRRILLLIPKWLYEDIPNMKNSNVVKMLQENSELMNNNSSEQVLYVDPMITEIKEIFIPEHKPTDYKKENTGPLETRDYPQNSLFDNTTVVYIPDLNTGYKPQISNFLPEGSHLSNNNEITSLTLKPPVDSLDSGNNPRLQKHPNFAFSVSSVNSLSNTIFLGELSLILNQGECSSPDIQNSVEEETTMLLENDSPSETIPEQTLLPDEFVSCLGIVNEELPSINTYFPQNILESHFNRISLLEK
Put plainly: Binding assay (NanoBRET displacement of fluorophore-labelled reference compound) for estimating binding affinity to human IL-23R. An excerpt: Binding Assay for Estimating Binding Affinity of Compounds to Human IL-23R
The compound binding affinity for IL-23R was estimated by the ability of compounds to displace a fluorophore-labelled reference compound from the human IL-23R. The assay principle relies on Bioluminescence Resonance Energy Transfer (BRET) between a fluorophore-labelled reference compound binding to the IL-23R part of a fusion protein consisting of the IL-23R fused to a Nanoluc luciferase enzyme (Nanoluc). The Nanoluc is placed in the N-terminus in close proximity to the binding domain of the ligand. Upon close proximity between the fluorophore of the fluorophore-labelled compound and the Nanoluc of the fusion protein, bioluminescence energy generated from conversion of a Nanoluc substrate, is transferred to the fluorophore resulting in an increase in BRET. In presence of an unlabelled compound, the unlabelled compound displaces the fluorophore-labelled peptide from its binding site resulting in a decrease in BRET. The concentration for which half of the fluorophore-labelled peptide is displaced by the unlabelled compound depends on the affinity of the compound for the IL-23R, and is termed the IC50 concentration. An estimated affinity (K) of the unlabelled compound for the IL-23R may be calculated using the Cheng-Prussov equation, which takes into account the concentration of the fluorophore-labelled compound used, and the affinity of the fluorophore-labelled compound for IL-23R.
The plasmid also contained a gene to confer resistance for the antibiotic hygromycin. A cell line stably expressing the Nluc-IL23R fusion protein was generated by transfection of HEK293 cells with the expression plasmid and selected with hygromycin for 3 weeks in Growth medium consisting of DMEM w/Glutamax-I containing, 10% V/V FBS, 1% V/V P/S, 1 mM Sodium Pyruvate, and 1×NEAA, and 0.3 mg/mL hygromycin. The remaining cells were propagated and considered a stable expressing Nluc-IL23R fusion protein pool clone.
Cells expressing the Nluc-IL23R fusion protein were expanded in Growth medium and membranes prepared by homogenization of a cell pellet from 18 T175 flasks (4° C. in subsequent steps). The cell pellet was lysed Tris 10 mM, 7.5, 1 mM EDTA and protease inhibitors (Complete, Roche) and homogenized using a 15 mL glass-dounce by 50 strokes. The homogenate was spun at spin @1500 rpm for 10 min, the supernatant transferred to SV-34 tubes and spun at 40000 g for 20 min at 4° C. to pellet the crude membranes. The supernatant was then removed, the pellet resuspended in 5 mL buffer containing 50 mM HEPES pH 7.4, 5 mM EGTA, and 5 mM MgCl2, and homogenized. Aliquots of the resuspended and homogenized membranes containing the Nluc-IL23R fusion protein were stored at −80° C. until use.
The plate was sealed with light impermeable plate seals, and incubated on a orbital shaker 400 rpm for 2 hours at room temperature. To determine the BRET ratio, the plate seal was removed and 25 μL of the Nanoluc substrate (Promega N1572) diluted 1:500 was added to each well and incubated for 1-2 minutes on an orbital shaker at 400 rpm. […] The BRET ratio was calculated as the fluorescence from the TAMRA/nanoluc bioluminescence. The IC50 for each compound was determined by computer-aided curve fitting using a 4-parameter logistic (4PL) non-linear model.

Where [1] appears, read: Table 3-1, read-out: Ki hIL-23R.

As to `CC[C@H](C)[C@@H]1NC(=O)Cc2ccc(cc2)CNC(=O)CC[C@@H](C(=O)NCC(=O)N[C@@H](Cc2cccnc2)C(N)=O)NC(=O)[C@](C)(C(C)C)NC(=O)[C@H](Cc2ccc(C)c(C)c2)NC(=O)[C@H](Cc2ccc(OCCN)cc2)NC(=O)[C@@H]2CCNC(=O)CC[C@H](NC1=O)C(=O)N[C@@H](Cc1c[nH]c3ccccc13)C(=O)N[C@@H](CCC(N)=O)C(=O)N2` [Compound 158, [4-Aminomethyl-phenylacetyl](1c)*IE(2c)WQ[Dab](2c)[Y(2-aminoethoxy)][F(3,4-Me)][2-Me-Val]E(1c)G[3-(3-Pyridyl)-Ala]-[NH2]] ([X1]IEWQ[Dab][AEF][Phe(3,4-Me2)][αMeV]EG[3Pal]-NH2; lactam 3-6, N-10), the Ki (commonly the equilibrium dissociation constant of an inhibitor or competing ligand from its target) under setting [1] is 0.0272 nM. `CC[C@H](C)[C@@H]1NC(=O)Cc2ccc(cc2)CNC(=O)CC[C@@H](C(=O)N[C@@H](CCN)C(=O)N[C@@H](Cc2cccnc2)C(N)=O)NC(=O)[C@](C)(C(C)C)NC(=O)[C@H](Cc2ccc3ccccc3c2)NC(=O)[C@H](Cc2ccc(OCCN)cc2)NC(=O)[C@@H]2CCNC(=O)CC[C@H](NC1=O)C(=O)N[C@@H](Cc1c[nH]c3ccccc13)C(=O)N[C@@H](CCC(N)=O)C(=O)N2` [Compound 157, [4-Aminomethyl-phenylacetyl](1c)*IE(2c)WQ[Dab](2c)[Y(2-aminoethoxy)][2-Nal][2-Me-Val]E(1c)[Dab][3-(3-Pyridyl)-Ala]-[NH2]] ([X1]IEWQ[Dab][AEF][2Nal][αMeV]E[Dab][3Pal]-NH2; lactam 3-6, N-10): the Ki under setting [1] is 0.0117 nM. Regarding `CC(C)C[C@]1(C)NC(=O)[C@H](Cc2ccc3ccccc3c2)NC(=O)[C@H](Cc2ccc(OCCN)cc2)NC(=O)[C@@H]2CCC(=O)NCCC[C@H](NC(=O)[C@H](CO)NC(=O)c3cccc(c3)CNC(=O)CC[C@@H](C(=O)N[C@@H](CCCNC(=N)N)C(N)=O)NC1=O)C(=O)N[C@@H](Cc1c[nH]c3ccccc13)C(=O)N[C@@H](CCC(N)=O)C(=O)N2` (relative stereo) [Compound 68, [(3-Aminomethyl)benzoyl](1c)*S[Orn](2c)WQE(2c)[Y(2-aminoethoxy)][2-Nal][2-Me-Leu]E(1c)R-[NH2]], the Ki under setting [1] was 3.32 nM. With `CC(=O)N[C@@H](CC(=O)O)C(=O)N[C@H]1CSCC(=O)CSC[C@@H](C(=O)N[C@@H](CCC(=O)O)C(=O)N[C@@H](CC(N)=O)C(=O)NCC(N)=O)NC(=O)[C@](C)(CC(C)C)NC(=O)[C@H](Cc2c[nH]c3ccccc23)NC(=O)[C@H](Cc2c[nH]c3ccccc23)NC(=O)[C@@H]2CSCC(=O)CSC[C@H](NC(=O)[C@H](CCC(N)=O)NC1=O)C(=O)N[C@@H](Cc1c[nH]c3ccccc13)C(=O)N[C@@H](CCC(N)=O)C(=O)N2` [Compound 64, [Ac]-DC(1a)QC(2a)WQC(2a)WW[2-Me-Leu]C(1a)ENG-[NH2]] (Ac-DCQCWQCWW[αMeL]CENG-NH2; linker 2-11, 4-7 via CH2COCH2), the Ki was greater than 1000 nM. As to `Cc1cccc2c(C[C@@H]3NC(=O)[C@@H]4CSCC(=O)CSC[C@H](NC(=O)[C@H](CCC(N)=O)NC3=O)C(=O)N[C@@H](Cc3ccc(OCCN)cc3)C(=O)N[C@@H](Cc3ccc5ccccc5c3)C(=O)N[C@@](C)(CC(C)C)C(=O)N[C@H](C(=O)N[C@@H](CCCNC(=N)N)C(N)=O)CCC(=O)NCc3cccc(c3)C(=O)N[C@@H](CO)C(=O)N4)c[nH]c12` [Compound 70, [(3-Aminomethyl)benzoyl](1c)*SC(2a)[7-Me-Trp]QC(2a)[Y(2-aminoethoxy)][2-Nal][2-Me-Leu]E(1c)R-[NH2]] ([3Amb]SC[Trp(7-Me)]QC[AEF][2Nal][αMeL]ER-NH2; linker 3-6 via CH2COCH2; lactam N-10), under setting [1], the Ki was 0.485 nM.

Consider `CC(C)C[C@]1(C)NC(=O)[C@H](Cc2c[nH]c3ccccc23)NC(=O)[C@H](Cc2c[nH]c3ccccc23)NC(=O)[C@@H]2CSCC(=O)CSC[C@H](NC(=O)[C@H]([C@@H](C)O)NC(=O)[C@@H](NC(=O)CN)CSCC(=O)CSC[C@@H](C(=O)N[C@@H](CO)C(N)=O)NC1=O)C(=O)N[C@@H](Cc1c[nH]c3ccccc13)C(=O)N[C@@H](CCC(=O)O)C(=O)N2` (single isomer, unassigned) [I5 (isomer 3), H-GC(1a)TC(2a)WEC(2a)WW[2-Me-Leu]C(1a)S-[NH2], reference compound], for which the “potency for IL-23R (in words)” value (in comparison with Protagonist's Compound C) is listed as “lower potency”.

With `CC(C)C[C@]1(C)NC(=O)[C@H](Cc2ccc3ccccc3c2)NC(=O)[C@H](Cc2ccc(OCCN)cc2)NC(=O)[C@@H]2CSCC(=O)CSC[C@H](NC(=O)[C@H](CO)NC(=O)c3cccc(c3)CNC(=O)CC[C@@H](C(=O)N[C@@H](CCCNC(=N)N)C(=O)N[C@@H](Cc3cnc4ccccc4c3)C(N)=O)NC1=O)C(=O)N[C@@H](Cc1c[nH]c3ccccc13)C(=O)N[C@@H](CCC(N)=O)C(=O)N2` [Compound 149, [(3-Aminomethyl)benzoyl](1c)*SC(2a)WQC(2a)][Y(2-aminoethoxy)][2-Nal][2-Me-Leu]E(1c)R[3-(3-Quinolinyl)-Ala]-[NH2]] ([3Amb]SCWQC[AEF][2Nal][αMeL]ER[Ala(quinolin-3-yl)]-NH2; linker 3-6 via CH2COCH2; lactam N-10), under setting [1], the Ki was 0.163 nM. As to `CC(C)C[C@]1(C)NC(=O)[C@H](Cc2ccc3ccccc3c2)NC(=O)[C@H](Cc2ccc(OCCN)cc2)NC(=O)[C@@H]2CSCC(=O)CSC[C@H](NC(=O)[C@H](CO)NC(=O)c3cccc(c3)CNC(=O)CC[C@@H](C(=O)N[C@@H](CCCNC(=N)N)C(=O)N[C@H](Cc3cccnc3)C(N)=O)NC1=O)C(=O)N[C@@H](Cc1c[nH]c3ccccc13)C(=O)N[C@@H](CCC(N)=O)C(=O)N2` [Compound 150, [(3-Aminomethyl)benzoyl](1c)*SC(2a)WQC(2a)][Y(2-aminoethoxy)][2-Nal][2-Me-Leu]E(1c)R[{d}[3-(3-Pyridyl)-Ala]]-[NH2]] ([3Amb]SCWQC[AEF][2Nal][αMeL]ER[d3Pal]-NH2; linker 3-6 via CH2COCH2; lactam N-10), under setting [1], the Ki was 0.597 nM. Same read-out and setting: for `CC(C)C[C@]1(C)NC(=O)[C@H](Cc2ccc3ccccc3c2)NC(=O)[C@H](Cc2ccc(OCCN)cc2)NC(=O)[C@@H]2CSCC(=O)CSC[C@H](NC(=O)[C@H](CO)NC(=O)Cc3ccc(cc3)CNC(=O)CC[C@@H](C(=O)N[C@H](CCC(N)=O)C(N)=O)NC1=O)C(=O)N[C@@H](Cc1c[nH]c3ccccc13)C(=O)N[C@@H](CCC(N)=O)C(=O)N2` [Compound 115, [4-Aminomethyl-phenylacetyl](1c)*SC(2a)WQC(2a)[Y(2-aminoethoxy)][2-Nal][2-Me-Leu]E(1c)[{d}Q]-[NH2]] ([X1]SCWQC[AEF][2Nal][αMeL]E[dQ]-NH2; linker 3-6 via CH2COCH2; lactam N-10) the value was 0.182 nM. As for `CC(C)C[C@]1(C)NC(=O)[C@H](Cc2ccc3ccccc3c2)NC(=O)[C@H](Cc2ccc(OCCN)cc2)NC(=O)[C@@H]2CSCC(=O)CSC[C@H](NC(=O)[C@H](CO)NC(=O)Cc3ccc(cc3)CNC(=O)CC[C@@H](C(=O)N[C@@H](CCCNC(=N)N)C(N)=O)NC1=O)C(=O)N[C@@H](Cc1c[nH]c3ccccc13)C(=O)N[C@@H](CCC(N)=O)C(=O)N2` [Compound 52, [4-Aminomethyl-phenylacetyl](1c)*SC(2a)WQC(2a)[Y(2-aminoethoxy)][2-Nal][2-Me-Leu]E(1c)R-[NH2]] ([X1]SCWQC[AEF][2Nal][αMeL]ER-NH2; linker 3-6 via CH2COCH2; lactam N-10), the inhibitory constant (Ki) (hIL-23R, Ki from IC50 by Cheng-Prusoff equation, read-out: Ki determined affinity) is 0.057 nM.
